Drawing on PubChem BioAssay (NCI), this text covers TGI and GI50 for 10 compounds.

What is called TGI is the concentration at which net growth stops. Low readings indicate greater sensitivity of the cells, high ones lower sensitivity of the cells. In general, GI50 refers to the concentration that inhibits growth by half.

Test systems include TK-10 renal; UACC-257 melanoma; SF-539 CNS; HT29 colon; COLO 205 colon; SF-295 CNS; 786-0 renal; CAKI-1 renal; SW-620 colon; OVCAR-8 ovarian.
Experiment in all cases: DTP human tumour cell line panel, 48 h

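Each compound was tested at five concentrations against cells in 96-well plates for 48 hours. At the GI50, growth is halved. TGI marks complete inhibition of growth.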 Bounds are passed on as bounds.

Regarding `O=C(OC[C@H]1O[C@@H](OC(=O)c2cc(O)c(O)c(O)c2)[C@H](OC(=O)c2cc(O)c(O)c(O)c2)[C@@H](OC(=O)c2cc(O)c(O)c(O)c2)[C@@H]1OC(=O)c1cc(O)c(O)c(O)c1)c1cc(O)c(O)c(O)c1`, the TGI was 66 µM in the experiment on TK-10 renal; 65 µM in the experiment with UACC-257 melanoma; 16.3 µM in the experiment on SF-539 CNS; 73.7 µM in the experiment on HT29 colon; 46.3 µM in the experiment on COLO 205 colon; 20.3 µM with SF-295 CNS. Also, the TGI with 786-0 renal is 21.2 µM; in the experiment with CAKI-1 renal it was 85.6 µM; in the experiment on SW-620 colon it was greater than 100 µM; in the experiment on OVCAR-8 ovarian it was 24.9 µM.
In the case of `CCOC(=O)CC1NC(=O)CS1` (stereo not given), the TGI in the experiment with TK-10 renal is greater than 100 µM; with UACC-257 melanoma it was greater than 100 µM; in the experiment with SF-539 CNS it was greater than 100 µM; in the experiment on HT29 colon, greater than 100 µM; in the experiment on COLO 205 colon it was 16.3 µM; with SF-295 CNS it was greater than 100 µM. For the same compound, the TGI was greater than 100 µM in the experiment with 786-0 renal, greater than 100 µM in the experiment with CAKI-1 renal, 37.4 µM in the experiment with SW-620 colon and greater than 100 µM with OVCAR-8 ovarian.
For `CCOC(=O)[C@H]1Nc2ccc(OC)cc2C2c3ccccc3CC21` (stereo not given in full), the TGI in the experiment on TK-10 renal, with UACC-257 melanoma, in the experiment with SF-539 CNS, with HT29 colon, in the experiment on COLO 205 colon and in the experiment on SF-295 CNS was greater than 100 µM throughout. Also, the TGI in the experiment on 786-0 renal, in the experiment on CAKI-1 renal, in the experiment on SW-620 colon and in the experiment with OVCAR-8 ovarian was greater than 100 µM throughout.
Take `BrC1(Br)C2/C=C\CCCCC21` (stereo not given): the TGI in the experiment with TK-10 renal, with UACC-257 melanoma, in the experiment with SF-539 CNS, with HT29 colon, in the experiment with COLO 205 colon and in the experiment on SF-295 CNS was greater than 100 µM throughout. Further, the TGI with 786-0 renal, with CAKI-1 renal, in the experiment on SW-620 colon and with OVCAR-8 ovarian was greater than 100 µM throughout.
Regarding `COC(=O)c1c(-c2ccccc2)sc(-c2cccc3ccccc23)c1C(=O)OC`, the TGI in the experiment with TK-10 renal, in the experiment on UACC-257 melanoma, with SF-539 CNS, in the experiment with HT29 colon, in the experiment with COLO 205 colon and with SF-295 CNS was greater than 100 µM in each case. For the same compound, the TGI in the experiment on 786-0 renal, with CAKI-1 renal, in the experiment on SW-620 colon and in the experiment with OVCAR-8 ovarian was greater than 100 µM each time.
Take `N#C[C@@H]1C(n2ccc(N)nc2=O)O[C@H](CO)[C@H]1O` (stereo not given in full): the GI50 was greater than 100 µM in the experiment on TK-10 renal; greater than 93.3 µM with UACC-257 melanoma; greater than 100 µM with SF-539 CNS; greater than 85 µM in the experiment with HT29 colon; 8.79 µM in the experiment with COLO 205 colon; greater than 100 µM in the experiment on SF-295 CNS. Besides, the GI50 in the experiment on 786-0 renal was 13.2 µM; with CAKI-1 renal, 3.49 µM; with SW-620 colon, 53.6 µM; in the experiment with OVCAR-8 ovarian, 6 µM. The total growth inhibition concentration (TGI) in the experiment with TK-10 renal, in the experiment with UACC-257 melanoma, in the experiment on SF-539 CNS, in the experiment with HT29 colon, in the experiment on COLO 205 colon and in the experiment on SF-295 CNS was greater than 100 µM in each case. Moreover, the TGI in the experiment with 786-0 renal, in the experiment on CAKI-1 renal, with SW-620 colon and with OVCAR-8 ovarian was greater than 100 µM each time.
In the case of `COc1ccc(Cn2c(Cl)c(/C=C3/C(=O)Nc4ccccc43)c3cc(OC)c(C)cc32)cc1`, the GI50 with TK-10 renal is 13.3 µM; with UACC-257 melanoma, 55.3 µM; in the experiment on SF-539 CNS, 4.15 µM; in the experiment on HT29 colon, 4.1 µM; in the experiment on COLO 205 colon, 2.33 µM; with SF-295 CNS, 2.92 µM. Besides, the GI50 with 786-0 renal was 3.92 µM; with CAKI-1 renal, 5.81 µM; in the experiment with SW-620 colon it was 3.46 µM; with OVCAR-8 ovarian, 5.96 µM. Also, the TGI was greater than 100 µM with TK-10 renal; greater than 100 µM with UACC-257 melanoma; greater than 100 µM with SF-539 CNS; greater than 100 µM in the experiment with HT29 colon; 5.52 µM in the experiment on COLO 205 colon; 24.2 µM in the experiment on SF-295 CNS. Moreover, the TGI in the experiment with 786-0 renal was 31.7 µM; in the experiment with CAKI-1 renal it was greater than 100 µM; in the experiment on SW-620 colon it was greater than 100 µM; in the experiment on OVCAR-8 ovarian, greater than 100 µM.
For `Nc1ccc(S(=O)(=O)NCc2nccs2)cc1`, the TGI is 56.5 µM in the experiment on TK-10 renal; 44.5 µM in the experiment on UACC-257 melanoma; 36.2 µM with SF-539 CNS; 31.3 µM in the experiment with HT29 colon; 32.7 µM in the experiment with COLO 205 colon; greater than 100 µM with SF-295 CNS. Besides, the concentration for total growth inhibition (TGI) was 77.3 µM in the experiment with 786-0 renal, 84.6 µM in the experiment with CAKI-1 renal, greater than 100 µM with SW-620 colon and greater than 100 µM in the experiment on OVCAR-8 ovarian.
Regarding `COC(=O)C1=C(C(=O)OC)SC(=C(Cl)C(=S)Sc2ccccc2N)S1`, the GI50 with TK-10 renal is 30.9 µM; in the experiment on UACC-257 melanoma, 20.3 µM; in the experiment with SF-539 CNS, 18.3 µM; with HT29 colon, 93.9 µM; in the experiment with COLO 205 colon, 34.8 µM; with SF-295 CNS, 26.2 µM. Besides, the GI50 in the experiment with 786-0 renal was 16.9 µM; in the experiment on CAKI-1 renal, 41.6 µM; with SW-620 colon, 55.4 µM; in the experiment with OVCAR-8 ovarian it was 46.6 µM. For the same compound, the TGI is 64.3 µM in the experiment on TK-10 renal; 55.7 µM in the experiment with UACC-257 melanoma; 42.5 µM with SF-539 CNS; greater than 100 µM in the experiment with HT29 colon; greater than 100 µM with COLO 205 colon; 64.5 µM in the experiment with SF-295 CNS. Moreover, the TGI was 36.1 µM with 786-0 renal, greater than 100 µM in the experiment on CAKI-1 renal, greater than 100 µM in the experiment with SW-620 colon and greater than 100 µM in the experiment on OVCAR-8 ovarian.
In the case of `Oc1ccccc1-c1nc2c3ccccc3c3ccccc3c2[nH]1`, the GI50 with TK-10 renal is 9.26 µM; with UACC-257 melanoma, 14.1 µM; in the experiment on SF-539 CNS, 9.28 µM; in the experiment with HT29 colon it was 14 µM; in the experiment on COLO 205 colon, 10.8 µM; in the experiment on SF-295 CNS it was 10.4 µM. For the same compound, the GI50 with 786-0 renal was 4.67 µM; with CAKI-1 renal, 1.67 µM; with SW-620 colon, 10.6 µM; in the experiment with OVCAR-8 ovarian it was 12.1 µM. The TGI with TK-10 renal came to 20.8 µM; in the experiment on UACC-257 melanoma it was 27.1 µM; in the experiment on SF-539 CNS, 21.2 µM; in the experiment with HT29 colon, 27 µM; in the experiment on COLO 205 colon, 22.7 µM; in the experiment on SF-295 CNS it was 22.2 µM. Further, the concentration for total growth inhibition (TGI) in the experiment on 786-0 renal was found to be 13.6 µM; in the experiment with CAKI-1 renal, 9.44 µM; in the experiment on SW-620 colon it was 22.4 µM; with OVCAR-8 ovarian, 24.5 µM.
